US9034899B2, “Aryl, heteroaryl, and heterocycle substituted tetrahydroisoquinolines and use thereof” (Albany Molecular Research, Inc., priority 2009, dated 2015)

How the values were obtained:
[1] = biological target: hSERT (Homo sapiens (Human), UniProt P31645); assay: SERT radioligand binding assay ([125I]RTI-55, HEK-293 membranes); conditions: for IC50: (+)-enantiomers, read-out: SERT IC50
Description: (§1) The medium was removed from the flasks and the cells rinsed with HBSS without Ca and without Mg. The cells were then incubated for 5-10 minutes in 10 mM Tris-Cl, pH 7.5, 5 mM EDTA before the cells were lifted with a combination of pipetting and scraping, as needed. The cell suspension was collected into centrifuge bottles and homogenized for 30 seconds with a Polytron homogenizer. The suspension was centrifuged for 30 minutes at 32,000×g, 4° C. The supernatant was decanted and the pellet resuspended and homogenized in 50 mM Tris-Cl, pH 7.5, 1 mM EDTA for 10 seconds. The suspension was then centrifuged again for 30 minutes at 32,000×g, 4° C. The supernatant was decanted and the pellet resuspended in 50 mM Tris-Cl, pH 7.5, 1 mM EDTA and briefly homogenized. A Bradford assay (Bio-rad) was performed and the membrane preparation diluted to 2 mg/ml with 50 mM Tris-Cl, pH 7.5, 1 mM EDTA. Aliquots were prepared, and then frozen and stored at −80° C.
Compounds were dissolved in 100% DMSO at a concentration 100 times the desired highest assay concentration, serially diluted 1:3 in 100% DMSO, and 0.4 μl/well of each solution was dispensed to a Nunc polypropylene, round bottom, 384-well plate. […] The contents of the assay plate were then transferred to a Millipore MultiscreenHTS GF/B filter plate which was pretreated with 0.5% PEI for at least one hour. The plate was vacuum filtered and washed with 7 washes of 100 μl/well 50 mM Tris-Cl, pH 7.5, 120 mM NaCl, 5 mM KCl chilled to 4° C. The filtration and washing were completed in less than 90 seconds. The plates were air-dried overnight, 12 μl/well of MicroScint scintillation fluid added, and the plates counted in a Trilux.
(§2) Each plate was run in triplicate, and the concentration response curve thus generated was fit using the four-parameter dose response equation, Y=Bottom+(Top-Bottom)/(1+10^((LogIC50−X)*HillSlope)) in order to determine the IC50 value for each compound. The radioligand concentration chosen for each assay corresponds to the Kd concentration determined through saturation binding analysis for each assay.

[2] = biological target: hDAT (Homo sapiens (Human), UniProt Q01959); assay: DAT radioligand binding assay ([125I]RTI-55, HEK-293 membranes); conditions: for IC50: (+)-enantiomers, read-out: DAT IC50
hDAT, sequence (Q01959 whole entry): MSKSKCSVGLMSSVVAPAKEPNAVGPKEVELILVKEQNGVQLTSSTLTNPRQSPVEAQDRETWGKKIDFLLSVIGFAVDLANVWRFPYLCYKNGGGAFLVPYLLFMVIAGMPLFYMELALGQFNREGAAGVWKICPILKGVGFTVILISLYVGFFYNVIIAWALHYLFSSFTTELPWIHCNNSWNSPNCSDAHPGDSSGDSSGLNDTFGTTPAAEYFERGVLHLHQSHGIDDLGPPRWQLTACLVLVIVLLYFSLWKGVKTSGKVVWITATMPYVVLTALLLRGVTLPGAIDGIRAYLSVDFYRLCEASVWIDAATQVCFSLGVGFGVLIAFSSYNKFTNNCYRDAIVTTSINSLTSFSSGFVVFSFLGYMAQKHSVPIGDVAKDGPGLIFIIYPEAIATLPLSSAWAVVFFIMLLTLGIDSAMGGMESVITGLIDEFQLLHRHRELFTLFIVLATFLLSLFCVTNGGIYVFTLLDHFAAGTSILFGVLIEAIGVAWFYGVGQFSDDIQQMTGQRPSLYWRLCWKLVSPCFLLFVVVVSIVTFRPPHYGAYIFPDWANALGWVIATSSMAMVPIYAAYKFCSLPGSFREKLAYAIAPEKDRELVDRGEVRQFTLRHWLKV
Description: as §1, with “Recombinant HEK-293 cells expressing either the hSERT, hDAT, or hNET proteins were harvested from T-175 flasks as follows. The medium” for “The medium”
Compounds were dissolved in 100% DMSO at a concentration 100 times the desired highest assay concentration, serially diluted 1:3 in 100% DMSO, and 0.4 μl/well of each solution was dispensed to a Nunc polypropylene, round bottom, 384-well plate. 100% inhibition is defined with 0.4 μl/well of 1 mM GBR-12935 dissolved in DMSO. 20 ul/well of a 2× membrane preparation (12.5 μg/ml in 30 mM sodium phosphate buffer, pH 7.9 at 4° C.) and 20 μl/well of a 2× radioligand solution ([…] [^125I]RTI-55 in 30 mM sodium phosphate buffer, pH 7.9 at 4° C.) were added to the well and the reaction incubated for 1 hour at room temperature. The contents of the assay plate were then transferred to a Millipore MultiscreenHTS GF/B filter plate which was pretreated with 0.5% PEI for at least one hour. The plate was vacuum-filtered and washed with 7 washes of 100 μl/well 50 mM Tris-Cl, pH 7.5, 120 mM NaCl, 5 mM KCl chilled to 4° C. The filtration and washing were completed in less than 90 seconds. The plates were air-dried overnight, 12 μl/well of MicroScint scintillation fluid added, and the plates counted in a Trilux.
as §2, with “The raw data was normalized to percent inhibition using control wells defining 0% (DMSO only) and 100% (selective inhibitor) inhibition which were run on each plate. Each” for “Each”

[3] = biological target: hNET (Homo sapiens (Human), UniProt P23975); assay: NET radioligand binding assay ([3H]nisoxetine, HEK-293 membranes); conditions: for IC50: (+)-enantiomers
hNET, sequence (P23975 whole entry): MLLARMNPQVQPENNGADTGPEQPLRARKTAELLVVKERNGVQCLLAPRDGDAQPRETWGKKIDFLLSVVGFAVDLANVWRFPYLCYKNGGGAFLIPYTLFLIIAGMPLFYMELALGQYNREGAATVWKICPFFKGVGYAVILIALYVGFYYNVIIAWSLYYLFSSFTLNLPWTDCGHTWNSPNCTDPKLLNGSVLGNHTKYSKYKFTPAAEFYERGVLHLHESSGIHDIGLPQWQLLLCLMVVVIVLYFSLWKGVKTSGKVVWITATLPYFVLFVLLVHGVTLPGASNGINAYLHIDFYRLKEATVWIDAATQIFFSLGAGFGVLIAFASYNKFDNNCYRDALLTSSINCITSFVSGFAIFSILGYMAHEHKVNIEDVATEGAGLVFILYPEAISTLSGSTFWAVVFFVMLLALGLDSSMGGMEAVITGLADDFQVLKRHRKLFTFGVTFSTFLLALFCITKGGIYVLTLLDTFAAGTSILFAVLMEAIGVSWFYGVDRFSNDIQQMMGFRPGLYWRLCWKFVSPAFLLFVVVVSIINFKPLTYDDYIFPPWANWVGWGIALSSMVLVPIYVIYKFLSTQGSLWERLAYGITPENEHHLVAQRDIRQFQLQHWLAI
Description: as §1, with “Recombinant HEK-293 cells expressing either the hSERT, hDAT, or hNET proteins were harvested from T-175 flasks as follows. The medium” for “The medium”
Compounds were dissolved in 100% DMSO at a concentration 100 times the desired highest assay concentration, serially diluted 1:3 in 100% DMSO, and 1.0 μl/well of each solution was dispensed to a Nunc polypropylene, round bottom, 384-well plate. 100% inhibition is defined with 1.0 μl/well of 10 mM desipramine dissolved in DMSO. 50 μl/well of a 2× membrane preparation (0.4 mg/ml in 50 mM Tris-Cl, pH 7.5, 120 mM NaCl, 5 mM KCl) and 50 μl/well of a 2× radioligand solution (4 nM [^3H]nisoxetine in 50 mM Tris-Cl, pH 7.5, 120 mM NaCl, 5 mM KCl) were added to the well and the reaction incubated for 1 hour at room temperature. The contents of the assay plate were then transferred to a Millipore MultiscreenHTS GF/B filter plate which was pretreated with 0.5% PEI for at least one hour. The plate was vacuum filtered and washed with 7 washes of 100 μl/well 50 mM Tris-Cl, pH 7.5, 120 mM NaCl, 5 mM KCl chilled to 4° C. The filtration and washing were completed in less than 90 seconds. The plates were air-dried overnight, 12 μl/well of MicroScint scintillation fluid added, and the plates counted in a Trilux.
as §2, with “The raw data was normalized to percent inhibition using control wells defining 0% (DMSO only) and 100% (selective inhibitor) inhibition which were run on each plate. Each” for “Each”

[4] = system: SERT; assay: Occupancy assay, ex vivo binding in brain tissue, SERT; conditions: dose 1 mg/kg, time point 3 h
Text: (§3) The general procedure for brain tissue collection and transporter occupancy assessment is briefly described as follows. Mice were sacrificed by asphyxiation in CO2, rats by decapitation and dogs by IV injection of euthanasia solution. For mice and rats, after the brains were removed from the skull, the forebrain tissue (removal of the brainstem and cerebellum) was used for SERT, NET, and DAT occupancy assessment. In dogs, the striatum was dissected for DAT occupancy and the remaining forebrain tissue (without the striatum, brainstem, and cerebellum) was used for SERT and NET occupancy assessment. The brain tissues were frozen in chilled isopentane and stored at −80° C. until homogenization.
(§4) The brain tissues were thawed and then homogenized using a polytron homogenizer (Kinematica). Sample aliquots were frozen immediately and stored at −80° C. Protein content was measured for each sample using a Coomassie protein assay kit (Pierce).
(§5) On the day of ex vivo binding for occupancy assessment, frozen sample aliquots were thawed and needle homogenized, and 100 μg of the tissue was incubated for SERT, NET, and DAT binding under assay conditions summarized in Table 2. After incubation, the reactions were terminated by the addition of ice-cold assay buffer and rapid filtration through a Brandel Cell Harvester using FPXLR-196 filters. The filters were washed twice with ice-cold incubation buffer, punched into a clear plate prior to the addition of 200 ul scintillation fluid per well. Radioligand was measured using a Wallac Microbeta liquid scintillation counter.
The specific binding was calculated by subtracting the value of the non-specific binding from that of the total binding in each sample. The percent occupancy was calculated as (1−specific binding in drug treated/specific binding in vehicle treated)×100%. For estimation of in vivo occupancy EC50 (total plasma concentration of compound producing 50% occupancy), plots of occupancy values versus plasma concentrations were fitted to a one-site binding model using nonlinear regression according to the following equation: % Occupancy=Emax*C/(EC50+C) where Emax is the maximal specific binding, C is the drug concentration, and EC50 is the total plasma concentration required for 50% binding site occupancy. Nonlinear regression was performed using GraphPad Prism version 3.00 (GraphPad Software, San Diego, Calif.).

[5] = system: DAT; assay: Occupancy assay, ex vivo binding in brain tissue, DAT; conditions: dose 1 mg/kg, time point 3 h
Text: as §3, §4
as §5, with “After incubation, the reactions were terminated by the addition of ice-cold assay buffer and rapid filtration through a Brandel Cell Harvester using FPXLR-196 filters.” left out
(§6) The specific binding was calculated by subtracting the value of the non-specific binding from that of the total binding in each sample. The percent occupancy was calculated as (1−specific binding in drug treated/specific binding in vehicle treated)×100%. […] Nonlinear regression was performed using GraphPad Prism version 3.00 (GraphPad Software, San Diego, Calif.).

[6] = system: NET; assay: Occupancy assay, ex vivo binding in brain tissue, NET; conditions: dose 1 mg/kg, time point 3 h
Text: as §3, §4
as §5, with “After incubation, the reactions were terminated by the addition of ice-cold assay buffer and rapid filtration through a Brandel Cell Harvester using FPXLR-196 filters.” left out
as §6

[7] = system: Male Swiss Webster mice; assay: Mouse tail suspension assay; type: in vivo; conditions: mouse tail suspension study, acute administration
Description: Male Swiss Webster mice were housed 3-4 per cage in rooms maintained at a constant temperature (21-23° C.) and humidity (50±10%) on a 12-hour light/dark cycle. Animals had ad libitum access to water and food throughout studies. On the day of testing, they were brought into the testing room and allowed to acclimate for one hour.
To begin testing, the tail was attached to a piece of tape which ias then attached to a hook on the ceiling of a sound-attenuated chamber. Immobility was automatically recorded using the Med Associates software. Compounds were administered acutely at a fixed pretreatment interval before session.

hSERT, sequence (P31645 whole entry): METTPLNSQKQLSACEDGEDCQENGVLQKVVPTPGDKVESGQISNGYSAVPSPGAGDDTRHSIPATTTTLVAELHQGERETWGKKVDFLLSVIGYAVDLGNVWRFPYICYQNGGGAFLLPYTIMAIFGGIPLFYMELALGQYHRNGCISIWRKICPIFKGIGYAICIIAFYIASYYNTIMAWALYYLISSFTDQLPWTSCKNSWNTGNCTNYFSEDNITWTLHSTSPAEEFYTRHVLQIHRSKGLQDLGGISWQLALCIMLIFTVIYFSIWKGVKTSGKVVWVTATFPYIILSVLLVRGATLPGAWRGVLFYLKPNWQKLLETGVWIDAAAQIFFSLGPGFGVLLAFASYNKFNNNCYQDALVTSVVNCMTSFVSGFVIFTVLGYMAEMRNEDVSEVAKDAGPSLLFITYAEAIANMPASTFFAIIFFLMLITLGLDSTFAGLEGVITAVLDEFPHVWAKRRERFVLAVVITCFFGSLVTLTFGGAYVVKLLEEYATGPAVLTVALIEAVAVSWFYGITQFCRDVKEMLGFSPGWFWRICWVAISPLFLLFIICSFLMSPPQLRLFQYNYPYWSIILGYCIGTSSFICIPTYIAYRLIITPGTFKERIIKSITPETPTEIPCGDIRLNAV

Structure (SMILES) | IC50 [1] [µM] | IC50 [2] [µM] | IC50 [3] [µM] | other results
COc1ccc(-c2ccc3c(c2)C(C)NCC3c2ccc(Cl)cc2)nn1 (stereo not shown) [Example 8, 4-(4-Chloro-phenyl)-7-(6-methoxy-pyridazin-3-yl)-1-methyl-1,2,3,4-tetrahydro-isoquinoline] |  |  |  | inhibition at 0.1 µM ([1]; 100 nM, SERT IC50 with footnote *): 59%; inhibition at 0.1 µM ([2]; 100 nM, DAT IC50 with footnote *): 30%; inhibition at 0.1 µM ([3]; 100 nM, NET IC50 with footnote *): 49%
FC(F)(F)c1ccc(-c2ccc3c(c2)CNCC3c2ccc(Cl)c(Cl)c2)nn1 (stereo not shown) [Example 11, 4-(3,4-dichlorophenyl)-7-(6-(trifluoromethyl)pyridazin-3-yl)-1,2,3,4-tetrahydroisoquinoline] | 0.01 | 0.08 | 0.013 | 
N#Cc1cccc(-c2ccc3c(c2)CNCC3c2ccc(Cl)c(Cl)c2)c1 (stereo not shown) [Example 15, 3-(4-(3,4-dichlorophenyl)-1,2,3,4-tetrahydroisoquinolin-7-yl)benzonitrile] | 0.014 | 0.213 | 0.086 | 
CS(=O)(=O)c1ccc(-c2ccc3c(c2)CNCC3c2ccc(Cl)c(Cl)c2)cc1 (stereo not shown) [Example 16, 4-(3,4-dichlorophenyl)-7-(4-(methylsulfonyl)phenyl)-1,2,3,4-tetrahydroisoquinoline] | 0.02 | 0.077 | 0.013 | 
O=c1ccccn1-c1ccc2c(c1)CNCC2c1ccc(Cl)c(Cl)c1 (stereo not shown) [Example 17, 1-(4-(3,4-dichlorophenyl)-1,2,3,4-tetrahydroisoquinolin-7-yl)pyridin-2(1H)-one] | 0.0069 | 0.0847 | 0.421 | 
O=c1cccnn1-c1ccc2c(c1)CNCC2c1ccc(Cl)c(Cl)c1 (stereo not shown) [Example 18, 2-(4-(3,4-dichlorophenyl)-1,2,3,4-tetrahydroisoquinolin-7-yl)pyridazin-3(2H)-one] | 0.0061 | 0.0299 | 0.132 | 
O=c1ccc(-c2cc3c(cc2F)C(c2ccc(Cl)c(Cl)c2)CNC3)n[nH]1 (stereo not shown) [Example 22, 6-(4-(3,4-dichlorophenyl)-6-fluoro-1,2,3,4-tetrahydroisoquinolin-7-yl)pyridazin-3(2H)-one] | 0.039 | 0.037 | 0.063 | 
CS(=O)(=O)c1cccc(-c2cc3c(cc2F)C(c2ccc(Cl)c(Cl)c2)CNC3)c1 (stereo not shown) [Example 23, 4-(3,4-dichlorophenyl)-6-fluoro-7-(3-(methylsulfonyl)phenyl)-1,2,3,4-tetrahydroisoquinoline] | 0.0836 | 0.101 | 0.283 | 
NC(=O)c1ccc(-c2cc3c(cc2F)C(c2ccc(Cl)c(Cl)c2)CNC3)cc1 (stereo not shown) [Example 26, 4-(4-(3,4-dichlorophenyl)-6-fluoro-1,2,3,4-tetrahydroisoquinolin-7-yl)benzamide] | 0.0245 | 0.0058 | 0.0233 | 
NC(=O)c1ccc(-c2cc3c(cc2F)C(c2ccc(Cl)cc2)CNC3)cc1 (stereo not shown) [Example 30, 4-(4-(4-chlorophenyl)-6-fluoro-1,2,3,4-tetrahydroisoquinolin-7-yl)benzamide] | 0.101 | 0.0245 | 0.215 | 
Clc1ccc(C2CNCc3cc(-c4ccc5ncnn5c4)ccc32)cc1Cl (stereo not shown) [Example 36, 7-([1,2,4]triazolo[1,5-a]pyridin-6-yl)-4-(3,4-dichlorophenyl)-1,2,3,4-tetrahydroisoquinoline] |  |  |  | SERT Occupancy % [4]: 75%; DAT Occupancy % [5]: 26%; NET Occupancy % [6]: 11%; minimum effective dose [7]: 10 mg/kg
